Measured values published in patent US20240108745A1, “BIOACTIVE SUBSTANCE CONJUGATE, PREPARATION METHOD THEREFOR AND USE THEREOF” (MEDILINK THERAPEUTICS (SUZHOU) CO., LTD., priority 2021, published 2024).
Read-outs that look alike come from different tables or passages of the source.

Legend:
HCC1806 cells = experiment: Assay I of bioactive molecules on cell viability in vitro (CCK8); format: cell-based; conditions: Homo sapiens, HCC1806, 72 h; 7500 cells/well, 3 days; read-out: EC50(nM), killing of HCC1806 cells
Procedure: (§1) Tumor cells were first cultured; the bioactive molecules of the present disclosure were co-cultured with tumor cells, and then CCK8 reagent (Dojindo Laboratories (Shanghai), Cat: CK04, Lot: JJ744) was added, and the activity of dehydrogenase in mitochondria was detected by reading (detection wavelength 450 nm) on a microplate reader (manufacturer: Molecular Devices, model: SpectraMax M2), to evaluate the inhibitory effect of bioactive molecules on cell proliferation.
(§2) In vitro cell viability assay method: bioactive molecules (12 concentration gradients) were diluted with corresponding assay medium (containing 2% FBS). The tumor cells were digested by conventional methods using trypsin, and cells in tube were collected and counted, then resuspended in the corresponding assay media (containing 2% FBS). The diluted bioactive molecules were added to a 96-well plate, followed by the cells. Then, 20 μL of CCK8 reagent was added to each well, and the reaction was carried out for 4 h, then the plate was read on a microplate reader (detection wavelength was 450 nm). The experimental results are shown in Tables 6.1, 6.2, 6.3, 6.4, and 6.5.

LS174T cells = experiment: as above; format: cell-based; conditions: Homo sapiens, read-out: EC50(nM), killing of LS174T cells
Procedure: as §1, §2

NCl-H322M cells = experiment: as above; format: cell-based; conditions: Homo sapiens, read-out: EC50(nM), killing of NCl-H322M cells
Procedure: as §1, §2

PANC-1 cells = experiment: as above; format: cell-based; conditions: Homo sapiens, read-out: EC50(nM), killing of PANC-1 cells
Procedure: as §1, §2

A431 = experiment: Assay II of bioactive molecules on cell viability in vitro (CCK8); format: cell-based; conditions: Homo sapiens, A-431; CCK8, 3-4 days
Procedure: as §1, with “Tumor cells NUCG-4, PC-9, HT29, NCI-H358, KYSE520, A431 and A549 were first” for “Tumor cells were first”, “bioactive molecules or fragments of the” for “bioactive molecules of the”
(§3) In vitro cell viability assay method: the tumor cells were digested by conventional methods using trypsin, and cells in tube were collected and counted, and then resuspended in the corresponding assay media (containing 2% FBS), which was added to a 96-well plate at 5000-10000 cells/well. Bioactive molecules were diluted with DMSO, and then 100 μL was added to a 96-well plate, the initial concentration was 10 μM, followed by 3-fold serial dilution (12 concentration gradients). The plate was incubated for 3-4 days at 37° C. under 5% CO2. Then, 20 μL of CCK8 reagent was added to each well, and the reaction was carried out for 2-6 h. The plate was read on a microplate reader (detection wavelength was 450 nm).

A549 = experiment: as above; format: cell-based; conditions: Homo sapiens, CCK8, 3-4 days
Procedure: as §1, with “Tumor cells NUCG-4, PC-9, HT29, NCI-H358, KYSE520, A431 and A549 were first” for “Tumor cells were first”, “bioactive molecules or fragments of the” for “bioactive molecules of the”
as §3

HT29 = experiment: as above; format: cell-based; conditions: Homo sapiens, HT-29; CCK8, 3-4 days
Procedure: as §1, with “Tumor cells NUCG-4, PC-9, HT29, NCI-H358, KYSE520, A431 and A549 were first” for “Tumor cells were first”, “bioactive molecules or fragments of the” for “bioactive molecules of the”
as §3

NCI-H358 = experiment: as above; format: cell-based; conditions: Homo sapiens, CCK8, 3-4 days
Procedure: as §1, with “Tumor cells NUCG-4, PC-9, HT29, NCI-H358, KYSE520, A431 and A549 were first” for “Tumor cells were first”, “bioactive molecules or fragments of the” for “bioactive molecules of the”
as §3

NUCG-4 = experiment: as above; format: cell-based; conditions: CCK8, 3-4 days
Procedure: as §1, with “Tumor cells NUCG-4, PC-9, HT29, NCI-H358, KYSE520, A431 and A549 were first” for “Tumor cells were first”, “bioactive molecules or fragments of the” for “bioactive molecules of the”
as §3

PC-9 = experiment: as above; format: cell-based; conditions: Homo sapiens, CCK8, 3-4 days
Procedure: as §1, with “Tumor cells NUCG-4, PC-9, HT29, NCI-H358, KYSE520, A431 and A549 were first” for “Tumor cells were first”, “bioactive molecules or fragments of the” for “bioactive molecules of the”
as §3

HT29 cells = experiment: Assay III of bioactive molecules on cell viability in vitro (CCK8); format: cell-based; conditions: Homo sapiens, HT-29; CCK8, 3-4 days (Assay III); read-out: EC50(nM), killing of HT29 cells
Procedure: Tumor cells HT29 (having a same source as the above) were first cultured. The bioactive molecules or fragments of the present disclosure were co-cultured with tumor cells, and then CCK8 reagent (Dojindo Laboratories (Shanghai), Cat: CK04, Lot: JJ744) was added, and the activity of dehydrogenase in mitochondria was detected by reading (detection wavelength 450 nm) on a microplate reader (manufacturer: Molecular Devices, model: SpectraMax M2), to evaluate the inhibitory effect of bioactive molecules on cell proliferation.
as §3, with “then” for “then 100 μL was”, “plate at 100 μL,” for “plate,”, “[…],” for “10 μM,”

[1] = human plasma 37° C., ADC 200 μg/mL, A1.9 released from B7H3-ADC-07(DAR8), DXD from B7H3-C1-ADC-21(DAR4)
Procedure: The appropriate concentration of internal standard stock solution was prepared with DMSO, and then acetonitrile or other reagents were used to prepare the appropriate concentration of the internal standard-containing precipitant.
Incubation of sample: the bacteriostatic agent ProClin was added to the plasma of each genera (human, cynomolgus monkey, ICR mouse) and PBS containing 1% BSA, and the final concentration of ProClin was 0.1%, Sterile operations were adopted. 40 μL working solution of test substance and 360 μL of human plasma were mixed to prepare 200 μg/mL of incubation sample. The plate was sealed with a film, and then incubated at 37° C. under 5% CO2 in an incubator, with a shaking speed of 80 times/mm. At 0 h, 4 h, 24 h, 2 d, 3 d, 7 d, 10 d, 14 d, 17 d, 21 d and 28 d, 20 μL of plasma sample was transferred, to which was added 200 μL of precipitant (containing internal standard), and completely mixed to precipitate the proteins.
All samples were subject to protein precipitating, and then centrifuged to collect the supernatant, which was diluted with water, and analyzed by LC-MS/MS.

[2] = cited from earlier work

Which EC50 (HCC1806 cells) does the source give for `CC[C@@]1(O)C(=O)OCc2c1cc1n(c2=O)Cc2c-1nc1cc(F)c(C)c3c1c2[C@@H](NC(=O)CO)CC3` [DXD, DXd, reference compound] here?
Its EC50 is 37 nM.

What about the EC50 (LS174T cells) of the same compound?
Its EC50 is 82 nM.

And the EC50 (NCl-H322M cells)?
The EC50 was 76.9 nM.

What about the EC50 (PANC-1 cells) of the same compound?
Its EC50 is 966 nM.

And the EC50 (A431)?
Its EC50 is 25.1 nM.

What about the EC50 (A549) of the same compound?
The EC50 was 262 nM.

And the EC50 (HT29)?
The EC50 was 210 nM.

And the EC50 (NCI-H358)?
The EC50 was 262 nM.

What about the EC50 (NUCG-4) of the same compound?
The EC50 was 43.3 nM.

And the EC50 (PC-9)?
The EC50 was 16.7 nM.

What about the EC50 (HT29 cells) of the same compound?
The EC50 was 22.9 nM.

What about the “Release ratio (%)” value ([1]; day 0) of the same compound?
The value was 0.348%.

And the “Release ratio (%)” value ([1]; day 0.17)?
Its value is 1.786%.

What about the “Release ratio (%)” value ([1]; day 1) of the same compound?
Its value is 2.765%.

What about the “Release ratio (%)” value ([1]; day 2) of the same compound?
The value was 3.603%.

And the “Release ratio (%)” value ([1]; day 3)?
The value was 3.763%.

What about the “Release ratio (%)” value ([1]; day 7) of the same compound?
The value was 4.116%.

What about the “Release ratio (%)” value ([1]; day 10) of the same compound?
The value was 5.126%.

And the “Release ratio (%)” value ([1]; day 14)?
Its value is 5.786%.

And the “Release ratio (%)” value ([1]; day 17)?
The value was 6.446%.

And the “Release ratio (%)” value ([1]; day 21)?
The value was 7.494%.

What about the “Release ratio (%)” value ([1]; day 28) of the same compound?
Its value is 12.659%.

With Trodelvy as the compound, how does the plasma half-life [2] read?
Its plasma half-life is “less than 24 hours”.
